Test results: US20230115274A1, “COMPOUNDS AND COMPOSITIONS FOR TREATING CONDITIONS ASSOCIATED WITH STING ACTIVITY” (IFM Due, Inc., priority 2019, published 2023)

molecular target: T1, hSTING (Homo sapiens, UniProt Q86WV6, G230A/H232R/R293Q/R71H); experiment: STING reporter assay (luciferase) in THP1-Dual KO-IFNAR2 cells stimulated with 2′3′cGAMP; format: cell-based; conditions: 2′3′cGAMP 15 μM, 24 h, class symbols
T1 construct: host or cells: THP1-Dual KO-IFNAR2 cells
Experimental: STING pathway activation by the compounds described herein was measured using THP1-Dual™ cells (KO-IFNAR2).
THP1-Dual™ KO-IFNAR2 Cells (obtained from invivogen) were maintained in RPMI, 10% FCS, 5 ml P/S, 2 mM L-glut, 10 mM Hepes, and 1 mM sodium pyruvate. Compounds were spotted in empty 384 well tissue culture plates (Greiner 781182) by Echo for a final concentration of 0.0017-100 μM. Cells were plated into the TC plates at […], 2×10E6 cells/mL. For activation with STING ligand, 2′3′cGAMP (MW 718.38, obtained from Invivogen), was prepared in Optimem media.
The following solutions were prepared for each 1×384 plate: • Solution A: 2 mL Optimem with one of the following stimuli: • […] • Solution B: 2 mL Optimem with 60 μL Lipofectamine 2000->Incubate 5 min at RT
2 mL of solution A and 2 ml Solution B was mixed and incubated for 20 min at room temperature (RT). 20 uL of transfection solution (A+B) was added on top of the plated cells, with a final 2′3′cGAMP concentration of 15 μM. The plates were then centrifuged immediately at 340 g for 1 minute, after which they were incubated at 37° C., 5% CO2, >98% humidity for 24 h. Luciferase reporter activity was then measured. EC50 values were calculated by using standard methods known in the art.
Luciferase reporter assay: 10 μL of supernatant from the assay was transferred to white 384-plate with flat bottom and squared wells. One pouch of QUANTI-Luc™ Plus was dissolved in 25 mL of water. 100 μL of QLC Stabilizer per 25 mL of QUANTI-Luc™ Plus solution was added. 50 μL of QUANTI-Luc™ Plus/QLC solution per well was then added. Luminescence was measured on a Platereader (e.g., Spectramax I3X (Molecular Devices GF3637001)).
Luciferase reporter activity was then measured. EC50 values were calculated by using standard methods known in the art.

T1 sequence (Q86WV6 whole entry R71H/G230A/H232R/R293Q): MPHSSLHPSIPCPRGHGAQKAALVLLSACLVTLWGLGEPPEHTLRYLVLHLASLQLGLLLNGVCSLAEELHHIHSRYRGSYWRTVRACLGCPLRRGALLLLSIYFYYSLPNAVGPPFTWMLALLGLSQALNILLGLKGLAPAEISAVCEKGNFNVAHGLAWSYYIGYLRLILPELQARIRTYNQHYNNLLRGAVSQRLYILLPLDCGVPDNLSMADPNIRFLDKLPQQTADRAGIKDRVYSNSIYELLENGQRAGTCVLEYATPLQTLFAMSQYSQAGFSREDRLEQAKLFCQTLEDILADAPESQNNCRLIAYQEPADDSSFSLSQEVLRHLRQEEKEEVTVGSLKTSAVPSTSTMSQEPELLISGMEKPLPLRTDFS

Row | EC50 [nM] | Structure (SMILES)
1 | 40 to 200 | O=C(Nc1cnc(C2CCC(F)(F)CC2)c(F)c1)Nc1c[nH]c2ncc(F)cc12 [Compound 113, 1-(6-(4,4-difluorocyclohexyl)-5-fluoropyridin-3-yl)-3-(5-fluoro-1H-pyrrolo[2,3-b]pyridin-3-yl)urea]
2 | 5000 to 100000 | O=C(Nc1cnc(C2CCC(F)(F)CC2)c(CO)c1)Nc1c[nH]c2ncc(F)cc12 [Compound 158, 1-(6-(4,4-difluorocyclohexyl)-5-(hydroxymethyl)pyridin-3-yl)-3-(5-fluoro-1H-pyrrolo[2,3-b]pyridin-3-yl)urea]
3 | 200 to 1000 | CCc1cc(NC(=O)Nc2c[nH]c3ncc(F)cc23)cnc1N1CCC(F)(F)CC1 [Compound 163, 1-(6-(4,4-difluoropiperidin-1-yl)-5-ethylpyridin-3-yl)-3-(5-fluoro-1H-pyrrolo[2,3-b]pyridin-3-yl)urea]
4 | 200 to 1000 | O=C(Nc1cnc(C2CCC(F)(F)CC2)c(Cl)c1)Nc1c[nH]c2ncc(F)cc12 [Compound 199, 1-(5-chloro-6-(4,4-difluorocyclohexyl)pyridin-3-yl)-3-(5-fluoro-1H-pyrrolo[2,3-b]pyridin-3-yl)urea]
5 | 200 to 1000 | O=C(Nc1ccc(C2CCC(F)(F)CC2)nc1)Nc1c[nH]c2ncc(F)cc12 [Compound 116, 1-(6-(4,4-difluorocyclohexyl)pyridin-3-yl)-3-(5-fluoro-1H-pyrrolo[2,3-b]pyridin-3-yl)urea]
6 | 200 to 1000 | COc1cc(NC(=O)Nc2c[nH]c3ncc(F)cc23)ncc1C1CCC(F)(F)CC1 [Compound 160, 1-(5-(4,4-difluorocyclohexyl)-4-methoxypyridin-2-yl)-3-(5-fluoro-1H-pyrrolo[2,3-b]pyridin-3-yl)urea]
7 | 1000 to 5000 | Cc1cc(NC(=O)Nc2c[nH]c3ncc(Cl)cc23)cnc1C1CCC(F)(F)CC1 [Compound 137, 1-(5-chloro-1H-pyrrolo[2,3-b]pyridin-3-yl)-3-(6-(4,4-difluorocyclohexyl)-5-methylpyridin-3-yl)urea]
8 | 200 to 1000 | N#Cc1cc(NC(=O)Nc2c[nH]c3ncc(F)cc23)cnc1N1CCC(F)(F)CC1 [Compound 157, 1-(5-cyano-6-(4,4-difluoropiperidin-1-yl)pyridin-3-yl)-3-(5-fluoro-1H-pyrrolo[2,3-b]pyridin-3-yl)urea]
9 | 5000 to 100000 | O=C(Nc1ccc(C2CCC(F)(F)CC2)nc1)Nc1c[nH]c2nc(Br)c(F)cc12 [Compound 180, 1-(6-bromo-5-fluoro-1H-pyrrolo[2,3-b]pyridin-3-yl)-3-(6-(4,4-difluorocyclohexyl)pyridin-3-yl)urea]

More lines, now with the values behind:

Row | Structure (SMILES) | EC50 [nM]
10 | O=C(Nc1cnc(N2CCC(F)(F)CC2)c(CCO)c1)Nc1c[nH]c2ncc(F)cc12 [Compound 147, 1-(6-(4,4-difluoropiperidin-1-yl)-5-(2-hydroxyethyl)pyridin-3-yl)-3-(5-fluoro-1H-pyrrolo[2,3-b]pyridin-3-yl)urea] | 5000 to 100000
11 | O=C(Nc1ccc(C2CC(F)(F)C2)c(F)c1)Nc1c[nH]c2cccnc12 [Compound 239, 1-(4-(3,3-difluorocyclobutyl)-3-fluorophenyl)-3-(1H-pyrrolo[3,2-b]pyridin-3-yl)urea] | 200 to 1000
12 | O=C(Nc1ccc(C2CCC(F)(F)CC2)nc1)Nc1c[nH]c2ccc(OCCC(F)(F)F)nc12 [Compound 204, 1-(6-(4,4-difluorocyclohexyl)pyridin-3-yl)-3-(5-(3,3,3-trifluoropropoxy)-1H-pyrrolo[3,2-b]pyridin-3-yl)urea] | 1000 to 5000
13 | O=C(Nc1cnc(C2CCC(F)(F)CC2)c(Cl)c1)Nc1c[nH]c2cccnc12 [Compound 142, 1-(5-chloro-6-(4,4-difluorocyclohexyl)pyridin-3-yl)-3-(1H-pyrrolo[3,2-b]pyridin-3-yl)urea] | 200 to 1000
14 | CC1(C)CN(c2ncc(NC(=O)Nc3c[nH]c4cccnc34)cc2Cl)CCO1 [Compound 241, 1-(5-chloro-6-(2,2-dimethylmorpholino)pyridin-3-yl)-3-(1H-pyrrolo[3,2-b]pyridin-3-yl)urea] | 5000 to 100000
15 | O=C(Nc1cnc(N2CCC(F)(F)CC2)c(F)c1)Nc1c[nH]c2cccnc12 [Compound 230, 1-(6-(4,4-difluoropiperidin-1-yl)-5-fluoropyridin-3-yl)-3-(1H-pyrrolo[3,2-b]pyridin-3-yl)urea] | 200 to 1000
16 | COc1ccc2[nH]cc(NC(=O)Nc3cnc(C4CCC(F)(F)CC4)c(C)c3)c2n1 [Compound 169, 1-(6-(4,4-difluorocyclohexyl)-5-methylpyridin-3-yl)-3-(5-methoxy-1H-pyrrolo[3,2-b]pyridin-3-yl)urea] | 200 to 1000
17 | O=C(Nc1ccc(C2CC(F)(F)C2)nc1)Nc1c[nH]c2ncc(F)cc12 [Compound 161, 1-(6-(3,3-difluorocyclobutyl)pyridin-3-yl)-3-(5-fluoro-1H-pyrrolo[2,3-b]pyridin-3-yl)urea] | 1000 to 5000
18 | COCCOc1ccc2[nH]cc(NC(=O)Nc3cnc(C4CCC(F)(F)CC4)c(Cl)c3)c2n1 [Compound 211, 1-(5-chloro-6-(4,4-difluorocyclohexyl)pyridin-3-yl)-3-(5-(2-methoxyethoxy)-1H-pyrrolo[3,2-b]pyridin-3-yl)urea] | 200 to 1000
19 | O=C(Nc1cnc(N2CCC3(CC2)CCC(F)(F)CO3)c(Cl)c1)Nc1c[nH]c2cccnc12 [Compound 207, 1-(5-chloro-6-(3,3-difluoro-1-oxa-9-azaspiro[5.5]undecan-9-yl)pyridin-3-yl)-3-(1H-pyrrolo[3,2-b]pyridin-3-yl)urea] | 5000 to 100000
20 | COc1cc2c(NC(=O)Nc3ccc(C4CCC(F)(F)CC4)c(C#N)c3)c[nH]c2cn1 [Compound 154, 1-(3-cyano-4-(4,4-difluorocyclohexyl)phenyl)-3-(5-methoxy-1H-pyrrolo[2,3-c]pyridin-3-yl)urea] | 200 to 1000
21 | O=C(Nc1cnc(N2CCN(CC(F)(F)F)CC2)c(Cl)c1)Nc1c[nH]c2cccnc12 [Compound 227, 1-(5-chloro-6-(4-(2,2,2-trifluoroethyl)piperazin-1-yl)pyridin-3-yl)-3-(1H-pyrrolo[3,2-b]pyridin-3-yl)urea] | 200 to 1000
22 | O=C(Nc1cnc(C2CCN(CC(F)(F)F)CC2)c(Cl)c1)Nc1c[nH]c2cccnc12 [Compound 222, 1-(5-chloro-6-(1-(2,2,2-trifluoroethyl)piperidin-4-yl)pyridin-3-yl)-3-(1H-pyrrolo[3,2-b]pyridin-3-yl)urea] | 200 to 1000
23 | O=C(Nc1cnc(N2CCCCC2)c(Cl)c1)Nc1c[nH]c2ncc(F)cc12 [Compound 196, 1-(5-chloro-6-(piperidin-1-yl)pyridin-3-yl)-3-(5-fluoro-1H-pyrrolo[2,3-b]pyridin-3-yl)urea] | 200 to 1000

same assay, conditions: 2′3′cGAMP 15 μM, 24 h, numeric bounds

Row | EC50 [nM] | Structure (SMILES)
24 | > 10000 | O=C(Nc1cnc(N2CC(F)(F)C2)c(Cl)c1)Nc1c[nH]c2cccnc12 [Compound 242, 1-(5-chloro-6-(3,3-difluoroazetidin-1-yl)pyridin-3-yl)-3-(1H-pyrrolo[3,2-b]pyridin-3-yl)urea]
25 | > 30000 | Cc1cc(N2CCC(F)(F)CC2)ncc1NC(=O)Nc1c[nH]c2ncc(F)cc12 [Compound 185, 1-(6-(4,4-difluoropiperidin-1-yl)-4-methylpyridin-3-yl)-3-(5-fluoro-1H-pyrrolo[2,3-b]pyridin-3-yl)urea]
26 | > 100000 | O=C(Nc1ccc(C2CCC(O)CC2)nc1)Nc1c[nH]c2ncc(F)cc12 (centres unmarked) [Compound 114, 1-(5-fluoro-1H-pyrrolo[2,3-b]pyridin-3-yl)-3-(6-(4-hydroxycyclohexyl)pyridin-3-yl)urea]
